In patent US20160194358A1, “LINEAR PEPTIDE ANTIBIOTCS” (priority 2013, published 2016):
Converted amounts (≈) assume the structure as drawn. Like-named read-outs stand apart in the source and are kept apart here. Where a SMILES comes first, the peptide text is derived from it. [ ]: non-standard residue; d: D form. The star is where a group is joined. boroAla((+)-pinanediol) = C[C@H](N*)B1O[C@@H]2C[C@@H]3C[C@@H](C3(C)C)[C@]2(C)O1; Benzenesulfonyl(4-Ph) = O=S(=O)(c1ccc(-c2ccccc2)cc1)*; Benzoyl(4-(4-Cl-Ph)) = O=C(c1ccc(-c2ccc(Cl)cc2)cc1)*; Propanoyl(3-decylamino) = CCCCCCCCCCNCCC(=O)*; X18 = CCCCc1ccc(-c2ccc(S(=O)(=O)*)cn2)cc1; X34 = CCCCc1ccc(-c2ccc(S(=O)(=O)*)cc2)cc1; X21 = O=S(=O)(c1ccc(-c2ccc(Cl)cc2)nc1)*; AlaCOCOOMe = COC(=O)C(=O)[C@H](C)N*; X31 = O=S(=O)(c1ccc(-c2ccccc2)cn1)*; NDecylGly = CCCCCCCCCCNCC(=O)O; X20 = CC(N*)C(=O)C(F)(F)C(=O)O; X37 = C[C@H](N*)B1OCCNCCO1; X17 = CCCCCCCCCNCCCC(=O)*; X7 = C[C@H](N*)C(=O)C1CO1; boroAla = C[C@H](N*)B(O)O; Dab = NCC[C@H](N)C(=O)O; X24 = CCCCCCCCNCCC(=O)*; Dap = NC[C@H](N)C(=O)O

How the values were obtained:
[1] = test system: Escherichia coli strain MC4100 IMP-4213, which harbors an LptD mutation; details: E. coli MC4100 IMP-4213; 35° C., 22 hours
Protocol: (§1) In vitro antimicrobial activity of each compound was determined by measuring minimal inhibitor concentrations (MICs) using the broth micro-dilution technique as approved by the Clinical and Laboratory Standards Institute (CLSI). Antibacterial activity was measure against two strains of bacteria: 1) methicillin resistant Staphylococcus aureus (MRSA) strain USA300 (NRS384) and 2) Escherichia coli strain MC4100 IMP-4213, which harbors an LptD mutation. Bacterial inocula were prepared by scraping cells into 1 mL of testing media (cation adjusted Mueller Hinton Broth supplemented with 0.002% v/v Tween-80) and diluting to a final OD600nm of 0.01.
(§2) Test compounds were prepared in DMSO at a concentration of 10 mg/ml. These compound stocks were diluted into testing media at a concentration of 64 μg/ml and 9 serial 1:2 dilutions were made in the same media, in 96-well U bottom microtiter dishes. Bacterial inocula were added to the two fold serial dilutions of test compounds to a final density of OD OD600nm of 0.0005 and incubated stationarily at 35° C. for 22 hours, after which the plates were examined visually.

[2] = test system: methicillin resistant Staphylococcus aureus (MRSA) strain USA300 (NRS384)
Protocol: as §1, §2

[3] = MRSA USA300 (NRS384), 35° C., 22 hours

Structure (SMILES)	MIC (μg/mL) E. coli [1] [µg/mL]	MIC (μg/mL) S. aureus ([2]; USA300, 22 h) [µg/mL]	MIC (μg/mL) S. aureus [2, 3] [µg/mL]
C[C@H](NC(=O)[C@H](CCCCN)NC(=O)[C@H](C)NC(=O)[C@@H](NC(=O)[C@H](CCN)NC(=O)c1ccc(-c2ccc(Cl)cc2)cc1)[C@@H](C)O)B1O[C@@H]2C[C@@H]3C[C@@H](C3(C)C)[C@]2(C)O1 [Compound 112] ({Benzoyl(4-(4-Cl-Ph))}-[Dab]TAK-{boroAla((+)-pinanediol)})	64 (≈ 76.3 µM)	1 (≈ 1.19 µM)	–
C[C@H](NC(=O)[C@H](CCCCN)NC(=O)[C@H](C)NC(=O)[C@@H](NC(=O)[C@H](CCN)NC(=O)c1ccc(-c2ccc(Cl)cc2)cc1)[C@@H](C)O)B1OCCNCCO1 [Compound 131] ({Benzoyl(4-(4-Cl-Ph))}-[Dab]TAK-X37)	–	–	1 (≈ 1.29 µM)
CCCCc1ccc(-c2ccc(CN(CCCN)C(=O)N[C@H](C(=O)N[C@@H](C)C(=O)N[C@@H](CCCCN)C(=O)N[C@@H](C)B3OC4C[C@@H]5C[C@@H](C5(C)C)[C@]4(C)O3)[C@@H](C)O)cc2)cc1 (some centres unmarked) [Compound 132]	32 (≈ 37.8 µM)	–	5.7 (≈ 6.74 µM)
C[C@H](NC(=O)[C@H](CCCCN)NC(=O)[C@H](C)NC(=O)[C@@H](NC(=O)[C@H](CCCCN)NS(=O)(=O)c1ccc(-c2ccccc2)cc1)[C@@H](C)O)B1O[C@@H]2C[C@@H]3C[C@@H](C3(C)C)[C@]2(C)O1 [Compound 133] ({Benzenesulfonyl(4-Ph)}-KTAK-{boroAla((+)-pinanediol)})	>64	–	8 (≈ 9.22 µM)
CC(NC(=O)[C@H](CCCCN)NC(=O)[C@H](C)NC(=O)[C@@H](NC(=O)[C@H](CCN)NC(=O)c1ccc(-c2ccc(Cl)cc2)cc1)[C@@H](C)O)C(=O)C(F)(F)C(=O)O (some centres unmarked) [Compound 215] ({Benzoyl(4-(4-Cl-Ph))}-[Dab]TAK-X20)	64 (≈ 81.8 µM)	6.7 (≈ 8.57 µM)	–
C[C@H](NC(=O)[C@@H](NC(=O)[C@H](CCN)NC(=O)c1ccc(-c2ccc(Cl)cc2)cc1)[C@@H](C)O)C(=O)N[C@@H](CCCCN)C(=O)N[C@@H](C)C(=O)C1CO1 (some centres unmarked) [Compound 216] ({Benzoyl(4-(4-Cl-Ph))}-[Dab]TAK-X7)	16 (≈ 21.9 µM)	1 (≈ 1.37 µM)	–
CCCCCCCCCCNCCC(=O)N[C@@H](CCCCN)C(=O)N[C@H](C(=O)N[C@@H](C)C(=O)N[C@@H](CCCCN)C(=O)N[C@@H](C)B(O)O)[C@@H](C)O [Compound 218] ({Propanoyl(3-decylamino)}-KTAK-boroAla)	>64	2.1 (≈ 2.88 µM)	–
CCCCCCCCCCNCCC(=O)N[C@@H](CCN)C(=O)N[C@H](C(=O)N[C@@H](C)C(=O)N[C@@H](CCCCN)C(=O)N[C@@H](C)B(O)O)[C@@H](C)O [Compound 219] ({Propanoyl(3-decylamino)}-[Dab]TAK-boroAla)	16 (≈ 22.8 µM)	1 (≈ 1.43 µM)	–
CCCCCCCCCCNCCC(=O)N[C@@H](CN)C(=O)N[C@H](C(=O)N[C@@H](C)C(=O)N[C@@H](CCCCN)C(=O)N[C@@H](C)B(O)O)[C@@H](C)O [Compound 220] ({Propanoyl(3-decylamino)}-[Dap]TAK-boroAla)	16 (≈ 23.3 µM)	1 (≈ 1.46 µM)	–
CCCCCCCCCCNCCC(=O)N[C@@H](CCCCN)C(=O)N[C@H](C(=O)N[C@@H](C)C(=O)N[C@@H](CC(N)=O)C(=O)N[C@@H](C)B(O)O)[C@@H](C)O [Compound 221] ({Propanoyl(3-decylamino)}-KTAN-boroAla)	64 (≈ 89.5 µM)	4 (≈ 5.6 µM)	–
CCCCCCCCCCNCCC(=O)N[C@@H](CN)C(=O)N[C@H](C(=O)N[C@@H](C)C(=O)N[C@@H](CC(N)=O)C(=O)N[C@@H](C)B(O)O)[C@@H](C)O [Compound 222] ({Propanoyl(3-decylamino)}-[Dap]TAN-boroAla)	8 (≈ 11.9 µM)	2 (≈ 2.97 µM)	–
CCCCCCCCCCNCCC(=O)N[C@@H](CCCCN)C(=O)N[C@@H](CCC(=O)O)C(=O)N[C@@H](C)C(=O)N[C@@H](CCCCN)C(=O)N[C@@H](C)B1O[C@@H]2C[C@@H]3C[C@@H](C3(C)C)[C@]2(C)O1 [Compound 223] ({Propanoyl(3-decylamino)}-KEAK-{boroAla((+)-pinanediol)})	64 (≈ 71.8 µM)	–	4 (≈ 4.49 µM)
CCCCCCCCCCNCCC(=O)N[C@@H](CCCCN)C(=O)N[C@@H](CC(=O)O)C(=O)N[C@@H](C)C(=O)N[C@@H](CCCCN)C(=O)N[C@@H](C)B1O[C@@H]2C[C@@H]3C[C@@H](C3(C)C)[C@]2(C)O1 [Compound 224] ({Propanoyl(3-decylamino)}-KDAK-{boroAla((+)-pinanediol)})	>64	–	11 (≈ 12.5 µM)
CCCCCCCCCCNCCC(=O)N[C@@H](CCCCN)C(=O)N[C@H](C(=O)N[C@@H](C)C(=O)N[C@@H](Cc1cnc[nH]1)C(=O)N[C@@H](C)B1O[C@@H]2C[C@@H]3C[C@@H](C3(C)C)[C@]2(C)O1)[C@@H](C)O [Compound 225] ({Propanoyl(3-decylamino)}-KTAH-{boroAla((+)-pinanediol)})	16 (≈ 18.3 µM)	–	2 (≈ 2.29 µM)
CCCCCCCCNCCC(=O)N[C@@H](CCCCN)C(=O)N[C@H](C(=O)N[C@@H](C)C(=O)N[C@@H](CCCCN)C(=O)N[C@@H](C)B1O[C@@H]2C[C@@H]3C[C@@H](C3(C)C)[C@]2(C)O1)[C@@H](C)O [Compound 226] (X24-KTAK-{boroAla((+)-pinanediol)})	>64	–	6.3 (≈ 7.55 µM)
CCCCCCCCCNCCCC(=O)N[C@@H](CCCCN)C(=O)N[C@H](C(=O)N[C@@H](C)C(=O)N[C@@H](CCCCN)C(=O)N[C@@H](C)B1O[C@@H]2C[C@@H]3C[C@@H](C3(C)C)[C@]2(C)O1)[C@@H](C)O [Compound 227] (X17-KTAK-{boroAla((+)-pinanediol)})	64 (≈ 74.2 µM)	2 (≈ 2.32 µM)	–
CCCCCCCCCNCCCC(=O)N[C@@H](CCCCN)C(=O)N[C@H](C(=O)N[C@@H](C)C(=O)N[C@@H](CCCCN)C(=O)N[C@@H](C)B(O)O)[C@@H](C)O [Compound 228] (X17-KTAK-boroAla)	>64	2 (≈ 2.74 µM)	–
CCCCCCCCCCNCC(=O)N[C@H](C(=O)N[C@@H](C)C(=O)N[C@@H](CCCCN)C(=O)N[C@@H](C)B1O[C@@H]2C[C@@H]3C[C@@H](C3(C)C)[C@]2(C)O1)[C@@H](C)O [Compound 229] (H-[NDecylGly]TAK-{boroAla((+)-pinanediol)})	64 (≈ 88.8 µM)	–	1.3 (≈ 1.8 µM)
CCCCCCCCCCNCC(=O)N[C@@H](CCCCN)C(=O)N[C@H](C(=O)N[C@@H](C)C(=O)N[C@@H](CCCCN)C(=O)N[C@@H](C)B1O[C@@H]2C[C@@H]3C[C@@H](C3(C)C)[C@]2(C)O1)[C@@H](C)O [Compound 230] (H-[NDecylGly]KTAK-{boroAla((+)-pinanediol)})	32 (≈ 37.7 µM)	–	0.36 (≈ 0.424 µM)
C[C@H](NC(=O)[C@H](CCCCN)NC(=O)[C@H](C)NC(=O)[C@@H](NC(=O)[C@H](CCCCN)NS(=O)(=O)c1ccc(-c2ccccc2)cn1)[C@@H](C)O)B1O[C@@H]2C[C@@H]3C[C@@H](C3(C)C)[C@]2(C)O1 [Compound 231] (X31-KTAK-{boroAla((+)-pinanediol)})	>64	–	32 (≈ 36.8 µM)
CCCCc1ccc(-c2ccc(S(=O)(=O)N[C@@H](CCN)C(=O)N[C@H](C(=O)N[C@@H](C)C(=O)N[C@@H](CCCCN)C(=O)N[C@@H](C)B3O[C@@H]4C[C@@H]5C[C@@H](C5(C)C)[C@]4(C)O3)[C@@H](C)O)cn2)cc1 [Compound 232] (X18-[Dab]TAK-{boroAla((+)-pinanediol)})	11 (≈ 12.3 µM)	–	1.5 (≈ 1.67 µM)
CCCCc1ccc(-c2ccc(S(=O)(=O)N[C@@H](CCN)C(=O)N[C@H](C(=O)N[C@@H](C)C(=O)N[C@@H](CCCCN)C(=O)N[C@@H](C)B(O)O)[C@@H](C)O)cn2)cc1 [Compound 233] (X18-[Dab]TAK-boroAla)	8 (≈ 10.5 µM)	–	2 (≈ 2.62 µM)
C[C@H](NC(=O)[C@H](CCCCN)NC(=O)[C@H](C)NC(=O)[C@@H](NC(=O)[C@H](CCN)NS(=O)(=O)c1ccc(-c2ccc(Cl)cc2)nc1)[C@@H](C)O)B1O[C@@H]2C[C@@H]3C[C@@H](C3(C)C)[C@]2(C)O1 [Compound 234] (X21-[Dab]TAK-{boroAla((+)-pinanediol)})	32 (≈ 36.6 µM)	–	16 (≈ 18.3 µM)
C[C@H](NC(=O)[C@H](CCCCN)NC(=O)[C@H](C)NC(=O)[C@@H](NC(=O)[C@H](CCN)NS(=O)(=O)c1ccc(-c2ccc(Cl)cc2)nc1)[C@@H](C)O)B(O)O [Compound 235] (X21-[Dab]TAK-boroAla)	32 (≈ 43.2 µM)	–	16 (≈ 21.6 µM)
CCCCc1ccc(-c2ccc(S(=O)(=O)N[C@@H](CCCCN)C(=O)N[C@H](C(=O)N[C@@H](C)C(=O)N[C@@H](CCCCN)C(=O)N[C@@H](C)B3O[C@@H]4C[C@@H]5C[C@@H](C5(C)C)[C@]4(C)O3)[C@@H](C)O)cc2)cc1 [Compound 236] (X34-KTAK-{boroAla((+)-pinanediol)})	16 (≈ 17.3 µM)	–	0.5 (≈ 0.541 µM)
CCCCCCCCCCNCCC(=O)N[C@@H](CCCCN)C(=O)N[C@H](C(=O)N[C@@H](C)C(=O)N[C@@H](CCN)C(=O)N[C@@H](C)C(=O)C(=O)OC)[C@@H](C)O [Compound 254] ({Propanoyl(3-decylamino)}-KTA[Dab]-AlaCOCOOMe)	–	16 (≈ 21.5 µM)	–
